From PubChem BioAssay (NCI)
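Cultured in 96-well plates, cells were exposed to test compound for 48 hours across five concentrations. At the GI50, growth is halved. TGI denotes the concentration required for complete inhibition of growth.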

Assays:
Assay in all cases: DTP human tumour cell line panel, 48 h
HCT-15 colon = test system: HCT-15 colon
OVCAR-4 ovarian = test system: OVCAR-4 ovarian
A498 renal = test system: A498 renal
UACC-62 melanoma = test system: UACC-62 melanoma
HT29 colon = test system: HT29 colon
NCI-H522 lung = test system: NCI-H522 lung
A549 NSCLC = test system: A549 NSCLC
U251 CNS = test system: U251 CNS
SK-MEL-2 melanoma = test system: SK-MEL-2 melanoma
SF-295 CNS = test system: SF-295 CNS

Structure (SMILES)	TGI (HCT-15 colon)	TGI (OVCAR-4 ovarian)	TGI (A498 renal)	TGI (UACC-62 melanoma)	TGI (HT29 colon)	TGI (NCI-H522 lung)	TGI (A549 NSCLC)	TGI (U251 CNS)	TGI (SK-MEL-2 melanoma)	TGI (SF-295 CNS)	GI50 (HCT-15 colon)	GI50 (OVCAR-4 ovarian)	GI50 (A498 renal)	GI50 (UACC-62 melanoma)	GI50 (HT29 colon)	GI50 (NCI-H522 lung)	GI50 (A549 NSCLC)	GI50 (U251 CNS)	GI50 (SK-MEL-2 melanoma)	GI50 (SF-295 CNS)
O=C(Nc1ccc(Cl)cc1)C(=O)C1=C(O)c2ccccc2OC1	> 100 µM	> 100 µM	> 100 µM	> 100 µM	> 100 µM	> 100 µM	> 100 µM	> 100 µM	> 100 µM	> 100 µM	–	–	–	–	–	–	–	–	–	–
CC(=O)[CH-]C(=O)c1ccccc1.CC(=O)[CH-]C(=O)c1ccccc1.[O-]Cc1cccs1.[O-]Cc1cccs1.[Ti+4]	46.2 µM	> 100 µM	> 100 µM	> 100 µM	46.6 µM	> 100 µM	> 100 µM	> 100 µM	> 100 µM	71.9 µM	20 µM	> 100 µM	> 100 µM	18 µM	17.5 µM	54.2 µM	97.9 µM	> 100 µM	> 100 µM	10.6 µM
CC1OC(OC2C(OC3CCC4(C)C(CCC5(C)C4CC=C4C6CC(C)(C)CCC6(CO)C(O)CC45C)C3(C)C)OC(C(=O)O)C(OC3OC(COC4OC(CO)C(O)C(O)C4O)C(O)C(O)C3O)C2O)C(O)C(O)C1O (stereo not given)	18.8 µM	12.8 µM	23.9 µM	20.6 µM	25.5 µM	2.95 µM	28.1 µM	22.1 µM	20.1 µM	20.2 µM	8.27 µM	3.1 µM	13.2 µM	9.64 µM	11.9 µM	1.43 µM	12.2 µM	10.2 µM	8.57 µM	8.13 µM
Nc1ccc(C(=O)O)c2[nH]c3ccccc3c(=O)c12	> 100 µM	> 100 µM	> 100 µM	> 100 µM	> 100 µM	> 100 µM	> 100 µM	> 100 µM	> 100 µM	> 100 µM	–	–	–	–	–	–	–	–	–	–
COc1cc2nc(-c3ccc(Cl)cc3)cc(OCCCN3CCC(O)CC3)c2cc1OC	12.5 µM	> 100 µM	3.83 µM	4.04 µM	3.81 µM	5.77 µM	14.8 µM	22.5 µM	5.05 µM	3.58 µM	0.763 µM	4.34 µM	1.53 µM	1.9 µM	0.7 µM	2.19 µM	2.2 µM	2.81 µM	2.07 µM	1.66 µM
CCN1CCC(O)(c2ccccc2)C(C(=O)c2ccccc2)C1 (stereo not given)	> 61.2 µM	32.8 µM	> 100 µM	> 69.2 µM	39.7 µM	6.87 µM	> 100 µM	> 100 µM	> 100 µM	> 100 µM	–	–	–	–	–	–	–	–	–	–
C=C(CNCCc1ccc(O)cc1)[C@@H]1CC[C@]2(CO)CC[C@]3(C)[C@H](CC[C@@H]4[C@@]5(C)CCC(NCCO)C(C)(C)[C@@H]5CC[C@]43C)[C@@H]12 (stereo not given in full)	3.37 µM	3.17 µM	3.72 µM	3.3 µM	1.57 µM	3.56 µM	3.12 µM	2.24 µM	3.38 µM	3.34 µM	1.57 µM	1.4 µM	1.72 µM	1.79 µM	0.395 µM	1.81 µM	1.7 µM	1.06 µM	1.79 µM	1.72 µM
Nc1cc2c3c(cccc3c1)C(=O)N(CCN1CCN(CCN3C(=O)c4cccc5cc(N)cc(c45)C3=O)CC1)C2=O	> 100 µM	> 100 µM	> 100 µM	> 100 µM	> 100 µM	> 100 µM	> 100 µM	> 100 µM	> 100 µM	> 100 µM	–	–	–	–	–	–	–	–	–	–
CC1(C)OCC(C2OC(On3nnc4ccc(Cl)cc43)C3OC(C)(C)OC23)O1 (stereo not given)	> 100 µM	> 100 µM	> 100 µM	> 100 µM	> 100 µM	> 100 µM	> 100 µM	> 100 µM	> 100 µM	> 100 µM	–	–	–	–	–	–	–	–	–	–
N/C(=N\N=C=C1C(=O)Nc2ccc(F)cc21)NO	> 100 µM	> 100 µM	> 100 µM	> 100 µM	> 100 µM	> 100 µM	> 100 µM	> 100 µM	> 100 µM	> 100 µM	–	–	–	–	–	–	–	–	–	–
COc1ccc2c(c1)C(=O)/C(=C/c1ccc(OCC(=O)c3ccc(Cl)cc3)cc1)O2	26.3 µM	36.7 µM	> 100 µM	> 100 µM	40.7 µM	15.7 µM	> 100 µM	35.3 µM	99.9 µM	> 100 µM	12.6 µM	13.3 µM	48.9 µM	17.5 µM	20.1 µM	3.77 µM	31.4 µM	15.5 µM	26.7 µM	30.9 µM
